Converted amounts (≈) assume the structure as drawn. Where two headings read alike, the source gives them in different places.
Tests used:
Format in all cases: cell-based
[1] = system: L. mexicana (MNYC/BZ/1962/M379) promastigote; test: Anti-Leishmania activity, AB assay, axenic promastigotes
Procedure: Promastigote stages of L. mexicana (MNYC/BZ/1962/M379), a generous gift from Vyacheslav Yurchenko, were cultured in M199 medium pH 7.4 supplemented with 2 μg/mL biopterin, 2 μg/mL hemin, 25 mM HEPES, 100 U/mL penicillin/streptomycin, and 10% heat-inactivated FBS (BioSera) pH 7.4 at 25 °C. The amastigotes were differentiated in vitro from late log/stationary promastigote cultures and cultivated in Schneider’s Drosophila Medium (SIM) at pH 5.5, supplemented with 1.5 μg/mL hemin, 100 U/mL penicillin/streptomycin, and 20% heat-inactivated FBS (BioSera) at pH 5.5, at 32 °C, and 5% CO2. Following a three-day period, the promastigotes underwent a transformation into amastigotes, which were then maintained in SIM.
To estimate the EC50, the AB assay, as previously described, was employed. The results are expressed as EC50, representing the dose of the compound required to inhibit cellular growth by 50%. Each EC50 value is the mean ± the standard error of the mean derived from at least three separate experiments, each performed in duplicate.

[2] = system: RAT2 fibroblast cell line; test: Cytotoxicity on proliferating cells, crystal violet assay, OD590; conditions: 24 h treatment, read-out: EC50 ± SEM RAT2
Procedure: (§1) MDCK and RAT cells were cultured in DMEM with 10% FBS at 37 °C in a 5% CO2 atmosphere as described previously. , To assess the toxic effects of the compounds on proliferating cells, cells were seeded in 24-well plates for 24 h to reach ∼15% confluence, and cells were treated in triplicate with increasing concentrations of the isolated compounds for an additional 24 h. Cells were washed with 1× PBS, fixed in staining solution (0.5% crystal violet, 20% methanol) for 10 min, and gently washed five times in 1× PBS. The fixed cells were then dissolved in lysis solution (0.1 M sodium citrate, 25% ethanol, pH 4.2) for 30 min, transferred to a 96-well plate in H2O, and the OD^590 was determined. EC50 values were determined using GraphPad Prism software and the dose–response fit equation. The EC50 values were determined from two independent experiments. Additionally, the impact of the isolated substances on the morphology of the HeLa adenocarcinoma cell line and primary human skin fibroblasts was examined by using fluorescence microscopy. Cells were cultured in DME medium supplemented with 10% FCS (Gibco, Invitrogen, Carlsbad, USA) on glass coverslips in 24-well plates until reaching approximately 50% confluence. The cells were treated with varying concentrations of isolated compounds dissolved in DMSO. Wells containing DMEM with DMSO served as the negative control. After 24 h cultivation, the cells were incubated with MitoTracker Red CMXRos (10 min) to label mitochondria, then fixed with 3.7% paraformaldehyde in PBS (20 min, room temperature), permeabilized with 0.1% Triton X-100 in PBS, and blocked with 1% BSA in PBS. The cells were then stained with Phalloidin-Alexa Fluor488 conjugate. All fluorescence reagents were purchased from Molecular Probes, Invitrogen, Carlsbad, CA, USA. Nuclei were stained with Fluoroshield DAPI (Sigma-Aldrich), and cells were examined using an IX71 microscope equipped with a DP70 camera and a 40× objective. Assays were performed at concentrations of 5, 25, 50, 100, and 125 μM.

[3] = system: Madin–Darby canine kidney (MDCK) epithelial cell line; test: as above; conditions: Canis lupus familiaris, 24 h treatment, read-out: EC50 ± SEM MDCK
Procedure: as §1

[4] = system: Jurkat T-lymphocyte cell line; test: Cytotoxicity, Hoechst 33258 staining and flow cytometry (FACS LSRII); conditions: 24 h incubation, flow cytometry, read-out: EC50 ± SEM Jurkat
Procedure: To evaluate the cytotoxicity of the isolated compounds, the immortalized T-lymphocyte cell line Jurkat was cultured in 96-well polypropylene U-bottom plates at a density of approximately 2 × 10^5 cells per well in RPMI1640 medium, with a total volume of 300 μL per well. Cells cultured in RPMI1640 medium alone and in RPMI1640 medium with DMSO were used as negative controls. After 24 h of incubation with the isolated compounds, dissolved in 10 mM DMSO, the cells were washed with PBS solution containing 0.02% gelatin and 0.01% sodium azide. Following this, the cells were stained with the fluorescent dye Hoechst 33258 and analyzed by flow cytometry using a FACS LSRII instrument (BD Biosciences, San Jose, USA) and FlowJo 10 software (Tree Star, Ashland, USA). Initial assays were conducted at concentrations of 5, 25, 50, 100, and 125 μM, with subsequent measurements at concentrations adjusted based on the results of the initial assays, each performed in triplicate. EC50 values were determined using Quest Graph software and the dose–response four parameters regression model. The EC50 values were determined from three independent experiments.

E. coli ATCC 3988 = test: Minimum inhibitory concentration (MIC) testing, serial binary dilution in 96-well plates; conditions: Escherichia coli, ATCC3988; 24 h in the dark; lowest concentration with no live microorganisms
Procedure: (§2) Minimum inhibitory concentration (MIC) testing of the extracts was performed using 96-well polypropylene plates against four different microorganisms: the Gram-positive bacterium K. rhizophila ATCC 9341, the Gram-negative bacterium E. coli ATCC 3988, and the yeasts C. albicans CCM 8215 and C. neoformans CCF 1081.
(§3) A working inoculum of each microorganism was prepared as follows: for E. coli and K. rhizophila, the inoculum was grown in LB medium (LB Broth, 25 g/L, incubated at 36 °C); for C. albicans and C. neoformans, YM6.3 medium (maltose extract 10 g, glucose 4 g, yeast extract 4 g per 1 L distilled water, incubated at 24 °C) with a cell concentration of approximately 5 × 10^5 cells/mL for all microorganisms was used.
(§4) Chloramphenicol served as a positive control for bacteria, while cycloheximide was used as a positive control for fungi. The gradient of the test substances was established by serial binary dilution across the wells. The MIC was determined by identifying the lowest concentration at which no live microorganisms were present. Cultivation was performed in the dark for 24 h.

C. neoformans CCF 1081 = test: as above; conditions: Cryptococcus neoformans, CCF1081; 24 h in the dark; n.d. = activity not detected; highest tested concentration 66.7 μM
Procedure: as §2, §3, §4

K. rhizophila ATCC 9341 = test: as above; conditions: Kocuria rhizophila, ATCC9341; 24 h in the dark; lowest concentration with no live microorganisms
Procedure: as §2, §3, §4

C. albicans CCM 8215 = test: as above; conditions: Candida albicans, CCM8215; 24 h in the dark; n.d. = activity not detected; highest tested concentration 66.7 μM
Procedure: as §2, §3, §4

Row | Structure (SMILES) | EC50 [1] [nM] | EC50 ([2]; Rat2, 24 h) [nM] | EC50 [3] [nM] | EC50 ([4]; Homo sapiens, Jurkat, 24 h) [nM] | MIC (E. coli ATCC 3988) [µM] | MIC (C. neoformans CCF 1081) [µM] | MIC (K. rhizophila ATCC 9341) [µM] | MIC (C. albicans CCM 8215) [µM] | EC50 [2] [nM] | EC50 [4] [nM]
1 | COc1cc(O)c2c(c1)C(=O)C1=C(C2=O)[C@H](O)[C@@H](O)[C@@H](C)O1 (relative stereo) [Compound 3, (2R,3R,4S)-3,4,6-trihydroxy-8-methoxy-2-methyl-3,4-dihydro-2H-benzo[g]chromene-5,10-dione] | 8600 | 5100 ± 700 | 4700 ± 600 | 16500 ± 1300 | 2.1 (≈ 0.643 µg/mL) | > 66.7 | 8.3 (≈ 2.54 µg/mL) | > 66.7 |  | 
2 | COc1cc(O)c2c(c1)C(=O)C1=C(C2=O)[C@@H](OC(C)=O)[C@@H](O)[C@@H](C)O1 [Compound 1, (2R,3S,4R)-3,6-dihydroxy-8-methoxy-2-methyl-5,10-dioxo-3,4,5,10-tetrahydro-2H-benzo[g]chromen-4-yl acetate] | 220 | 100 | 100 | ~1500 | 1 | 33.3 | 1 | 33.3 | 60 | 1700 ± 100
3 | COc1cc(O)c2c(c1)C(=O)C1=C(C2=O)[C@@H](O)[C@@H](OC(C)=O)[C@@H](C)O1 [Compound 5, (2R,3R,4R)-4,6-dihydroxy-8-methoxy-2-methyl-5,10-dioxo-3,4,5,10-tetrahydro-2H-benzo[g]chromen-3-yl acetate] | 240 | 30 | 100 | ~1500 | 1 | 33.3 | 2.1 | 66.7 |  | 1600 ± 100
4 | COc1cc(O)c2c(c1)C(=O)C1=C(C[C@@H](OC(C)=O)[C@@H](C)O1)C2=O [Compound 7, (2R,3R)-6-hydroxy-8-methoxy-2-methyl-5,10-dioxo-3,4,5,10-tetrahydro-2H-benzo[g]chromen-3-yl acetate] | 3600 | 6000 ± 300 | 5600 ± 1100 | 93200 ± 5900 | 4.2 | 33.3 | 4.2 | 33.3 |  | 

From PMC12163684, “Gunacins: Novel Benzo[g]chromene Derivatives from the Fungus Exobasidium sp. and Their Potent Anti-Leishmania and Trypanosoma Activities” (ACS Omega, 2025)
